Active and inactive are the calls of the source. No cut-off for these calls is given here.
Experiments:
Format in all cases: cell-based
[1] = target: Beta-2 adrenergic receptor (Rattus norvegicus) (UniProt P10608); test: Activation of beta-2 adrenergic receptor in rat L6 cells assessed as enhancement of 2-deoxyglucose uptake at 10 uM preincubated for 4 hrs followed by 2-deoxyglucose addition measured after 20 mins by fluorescence assay in presence of AMPK inhibitor dorsomorphin
[2] = target: Beta-2 adrenergic receptor (Rattus norvegicus) (UniProt P10608); test: Activation of beta-2 adrenergic receptor in rat L6 cells assessed as enhancement of 2-deoxyglucose uptake at 10 uM preincubated for 4 hrs followed by 2-deoxyglucose addition measured after 20 mins by fluorescence assay in presence of PI3K inhibitor LY294002
[3] = target: Beta-2 adrenergic receptor (Rattus norvegicus) (UniProt P10608); test: Activation of beta-2 adrenergic receptor in rat L6 cells assessed as enhancement of 2-deoxyglucose uptake preincubated for 4 hrs followed by 2-deoxyglucose addition measured after 20 mins by fluorescence assay
[4] = target: Beta-2 adrenergic receptor (Rattus norvegicus) (UniProt P10608); test: Activation of beta-2 adrenergic receptor in rat L6 cells assessed as enhancement of 2-deoxyglucose uptake at 10 uM preincubated for 4 hrs followed by 2-deoxyglucose addition measured after 20 mins by fluorescence assay relative to control
[5] = target: Beta-2 adrenergic receptor (Rattus norvegicus) (UniProt P10608); test: Activation of beta-2 adrenergic receptor in rat L6 cells assessed as enhancement of 2-deoxyglucose uptake at 10 uM preincubated for 4 hrs followed by 2-deoxyglucose addition measured after 20 mins by fluorescence assay in presence of beta-2 selective adrenergic receptor antagonist ICI118551
[6] = target: Beta-2 adrenergic receptor (Rattus norvegicus) (UniProt P10608); test: Activation of beta-2 adrenergic receptor in rat L6 cells assessed as enhancement of 2-deoxyglucose uptake at 10 uM preincubated for 4 hrs followed by 2-deoxyglucose addition measured after 20 mins by fluorescence assay in presence of non-selective beta-adrenergic receptor antagonist propranolol

Sequence of Beta-2 adrenergic receptor (Rattus norvegicus) (P10608 whole entry, looked up): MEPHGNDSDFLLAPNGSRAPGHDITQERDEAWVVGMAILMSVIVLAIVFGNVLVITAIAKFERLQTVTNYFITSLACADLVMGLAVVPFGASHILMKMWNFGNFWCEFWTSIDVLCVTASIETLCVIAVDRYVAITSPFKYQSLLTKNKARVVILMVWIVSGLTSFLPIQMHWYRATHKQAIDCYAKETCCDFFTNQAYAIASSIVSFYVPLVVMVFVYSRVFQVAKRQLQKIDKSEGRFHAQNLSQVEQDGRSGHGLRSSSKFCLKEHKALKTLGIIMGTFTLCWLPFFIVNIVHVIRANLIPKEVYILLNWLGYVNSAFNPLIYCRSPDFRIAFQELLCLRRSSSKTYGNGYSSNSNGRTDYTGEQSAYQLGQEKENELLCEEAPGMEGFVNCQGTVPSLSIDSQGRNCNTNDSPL

- Activity [1]: Active
- Activity [2]: Active
- Activity [3]: Dose-dependent effect
- fold change (FC) [4]: 2.1
- Activity [5]: inactive
- Activity [6]: inactive
Compound: OC[C@H]1O[C@@H](Oc2ccc(C[C@@H]3NCCc4cc(O)c(O)cc43)cc2)[C@H](O)[C@@H](O)[C@@H]1O

Reference: ChEMBL document CHEMBL3585333, “Higenamine 4'-O-β-d-glucoside in the lotus plumule induces glucose uptake of L6 cells through β2-adrenergic receptor” (Bioorg Med Chem, 2015)
